From PMC10386886, “First-in-class multifunctional TYMS nonclassical antifolate inhibitor with potent in vivo activity that prolongs survival” (JCI Insight, 2023)

How the values were obtained:
MIA PaCa-2 cells = experiment: MTS viability assay, MIA PaCa-2; format: cell-based; settings: Homo sapiens, 72-hour drug treatment, Figure 6E, highest concentration 350 μM
Description: Cells were harvested after 72 hours, and cell pellets were stored at –80°C. […] After 72 hours, cell viability was assessed by reduction of MTS using Cell Titer 96 R Aqueous One Solution Cell Proliferation Assay Kit (Promega, catalog G8081), following manufacturer’s recommendations. […] was measured on a SpectraMax M3 (Molecular Devices). Data were plotted in GraphPad Prism 9 to determine GI50 concentration. Chemical synthesis details, including characterization of each compound, can be found in the Supplemental section associated with this publication.

[1] = system: Luc-PANC-1 xenograft tumors; experiment: Luc-PANC-1 subcutaneous xenograft tumor model; format: in vivo; settings: 25 mg/kg PO, 4 cycles, Figure 9
Description: In the subcutaneous tumor model, the resulting Luc-PANC-1 xenograft tumors were monitored by direct tumor measurements and bioluminescence photon flux that is proportional to tumor size. […] Treatment was initiated 30 days after Luc-PANC-1 cell line subcutaneous injections (5 × 10^6 cells), when tumors reached 100 mm^3 in volume, generating a bioluminescence photon flux of 3 × 10^9 to 4 × 10^9 photons/s. […] Tumors from both treatment groups were excised, and the tumor mass was weighed (Figure 2E).
Luc-PANC-1 (5 × 10^6) and Luc-CM (0.5 × 10^6) cells were resuspended in 200 μL of PBS and injected subcutaneously or IP, respectively, into 6- to 8-week-old NSG mice. Tumor-bearing mice were imaged using Xenogen IVIS Lumina Bioluminescence Imaging System (PerkinElmer) every week after cell injection. […] For all animals, body weight was recorded weekly, and Luc-PANC-1 tumor volume was measured weekly with a caliper. For scheduled sacrifice experiments, animals were euthanized after 4 weeks of treatment. […] Tumor volume was calculated as volume = 0.52(length × width^2).
Prior to bioluminescence imaging the region where tumors were located was shaved. […] Following the injection of the D-luciferin substrate mice, were imaged using the Xenogen IVIS Lumina Bioluminescence Imaging System (PerkinElmer). The peak of luciferase photon flux was recorded 6 minutes after injection of the D-luciferin substrate. The total photon flux was analyzed and restricted to tumor region of interest using Living Image v2.60.1 software (Imaging Systems).

`CCc1nc(N)nc(N)c1-c1ccc(N(C)Cc2ccc3c(c2)OCO3)c([N+](=O)[O-])c1` [Compound 19-S7] was tested, and the GI50 (MIA PaCa-2 cells) was 200 nM, the Bioluminescence photon flux [1] was “reduced bioluminescence photon flux” and the Body weight [1] was “did not show adverse effects on or declines in body weight”. The “Final excised tumor mass” value [1] was “reduced mass of the final excised tumors” and the Tumor volume [1] was “reduced and stable tumor volumes”.
